This data set in a line: In vitro microsomal stability study, human liver microsomes. Format: in vitro ADME. The protocol:
Freshly prepared 10 mM CH3CN stock solution of the test compound was pre-incubated at 37 °C for 15 min with mouse/human liver microsomes added 0.1 M Tris-HCl buffer (pH 7.4). The final concentration was 4.6 μM. After pre-incubation, the cofactors (NADPH, G6P, G6PDH, and MgCl2 pre-dissolved in 0.1 M Tris-HCl) were added to the incubation mixture and the incubation was continued at 37 °C for 1 h. At each time point (0, 5, 15, 30, and 60 min), 30 μL of the incubation mixture was diluted with 200 μL of cold CH3CN spiked with 200 nM of the internal standard, followed by centrifugation at 3300g for 15 min. The supernatant was further diluted with H2O (1:1) for analysis. The concentration of the test compound was quantified by LC/MS–MS on a Waters Acquity UPLC/MS TQD system consisting of TQD MS equipped with an ESI interface. The analyses were run on an Acquity UPLC BEH C18 (50 × 2.1 mm ID, particle size 1.7 μm) with a VanGuard BEH C18 pre-column (5 × 2.1 mm ID, particle size 1.7 μm) at 40 °C. For each compound, the appropriate mobile phase was chosen. ESI was applied in positive mode. The percentage of the test compound remaining at each time point relative to t = 0 was calculated. The t1/2 were determined by a one-phase decay equation using a nonlinear regression of the compound concentration versus time. […]
For orientation: Liver microsomes are vesicles of endoplasmic reticulum, rich in cytochrome P450 enzymes.

For `CCCCCNC(=O)n1cc(-c2ccc(F)cc2C2CCN(C)CC2)oc1=O` [Compound 32b, 5-[4-Fluoro-2-(1-methyl-4-piperidyl)phenyl]-2-oxo-N-pentyl-oxazole-3-carboxamide], the “h-liver microsomes % compound remaining at 1 h” value (1 h) was determined as 80%. Moreover, the half-life at 4.6 μM (pH 7.4, read-out: h-liver microsomal stability t1/2) is greater than 1 h.

The values above are taken from PMC7770833, “Design, Synthesis, and Biological Evaluation of a Series of Oxazolone Carboxamides as a Novel Class of Acid Ceramidase Inhibitors” (Journal of Medicinal Chemistry, 2020).
